Experimental data: patent US8614235B2, “CAI-based systems and methods for the localized treatment of ocular and other diseases” (RFE Pharma LLC, priority 2004, dated 2013)

Legend:
[1] = system: neovascularization; assay: Contemplated clinical cases, local ocular CAI against neovascularization; format: in vivo
From the text: The following contemplated clinical cases of angiogenesis are presented as examples of methods of treatment and not as limitations. Other illustrations of treating systemic or localized angiogenesis are not presented, since the principles involved are similar, and will be apparent to the skilled reader based upon review of an individual's clinical manifestation and the preferred embodiments of the inventive compositions.

[2] = in vivo; cited from earlier work
[3] = patients; cited from earlier work
[4] = cited from earlier work
[5] = single 5 mg peribulbar injection in humans; cited from earlier work

SMILES | neovascular regression ([1]; Example 9, proliferative diabetic retinopathy, intravitreal 50 mcg) | neovascular regression ([1]; Example 10, subfoveal membrane, intravitreal 200 mcg then periocular sustained release solution) | serum half-life [2] [h] | plasma concentrations associated with unacceptable toxicity [3] | toxic effects observed in clinical studies ([4]; systemic oral dosing, doses required for effective circulating levels) | serious side effect of clinical use by systemic administration ([4]; two cases described (Berlin et al. 2002)) | dexamethasone detected in the vitreous cavity [5] [ng/mL]
NC(=O)c1nnn(Cc2cc(Cl)c(C(=O)c3ccc(Cl)cc3)c(Cl)c2)c1N [CAI] | some neovascular regression | neovascular regression occurs | 111 | above 100 micromolar | cerebellar ataxia, peripheral neuropathy and exacerbation of depression | loss of vision | 
C[C@@H]1C[C@H]2[C@@H]3CCC4=CC(=O)C=C[C@]4(C)[C@@]3(F)[C@@H](O)C[C@]2(C)[C@@]1(O)C(=O)CO [Dexamethasone] |  |  |  |  |  |  | 13
